In US20220281848A1, “PYRAZOLE-SUBSTITUTED PYRROLIDINONES AS HERBICIDES” (FMC Corporation, priority 2019, published 2022):

Assays:
Type in all cases: in vivo
Conditions in all cases: after 13 d
[1] = system: velvetleaf (Abutilon theophrasti, ABUTH); experiment: Test A post-emergence, velvetleaf
Method: (§1) Seeds of corn (Zea mays, ZEAMX), giant foxtail (Setaria faberi, SETFA), barnyardgrass (Echinochloa crus-galli, ECHCG), ivy-leaved morning glory (Ipomoea hederacea, IPOHE)), redroot pigweed (Amaranthus retroflexus, AMARE) and velvetleaf (Abutilon theophrasti, ABUTH) were sown in standard soil in pots. After cultivation for 8 d under controlled conditions in a glasshouse (at 24/16° C., day/night; 14 h light; 65% humidity), the plants were sprayed with an aqueous spray solution derived from the formulation of the technical active ingredient in acetone/water (50:50) solution containing 0.5% Tween 20 (polyoxyethylene sorbitan monolaurate, CAS RN 9005-64-5) to give a final dose of 15.625, 62.5 or 250 g/ha of test compound.
(§2) The test plants were then grown on under controlled conditions in a glasshouse (at 24/16° C., day/night; 14 h light; 65% humidity) and watered twice daily. After 13 d the test was evaluated (100=total damage to plant; 0=no damage to plant).

[2] = system: ivy-leaved morning glory (Ipomoea hederacea, IPOHE); experiment: Test A pre-emergence, ivy-leaved morning glory
Method: as §1, with “IPOHE),” for “IPOHE)),”, “one day” for “8 d”
(§3) The test plants were then grown under controlled conditions in a glasshouse (at 24/16° C., day/night; 14 h light; 65% humidity) and watered twice daily. After 13 d the test was evaluated (100=total damage to plant; 0=no damage to plant).

corn (Zea mays, ZEAMX) [3] = experiment: Test A post-emergence, corn
Method: as §1, §2

[4] = system: giant foxtail (Setaria faberi, SETFA); experiment: Test A pre-emergence, giant foxtail
Method: as §1, with “IPOHE),” for “IPOHE)),”, “one day” for “8 d”
as §3

[5] = system: velvetleaf (Abutilon theophrasti, ABUTH); experiment: Test A pre-emergence, velvetleaf
Method: as §1, with “IPOHE),” for “IPOHE)),”, “one day” for “8 d”
as §3

[6] = system: giant foxtail (Setaria faberi, SETFA); experiment: Test A post-emergence, giant foxtail
Method: as §1, §2

[7] = system: redroot pigweed (Amaranthus retroflexus, AMARE); experiment: Test A post-emergence, redroot pigweed
Method: as §1, §2

corn (Zea mays, ZEAMX) [8] = experiment: Test A pre-emergence, corn
Method: as §1, with “IPOHE),” for “IPOHE)),”, “one day” for “8 d”
as §3

[9] = system: redroot pigweed (Amaranthus retroflexus, AMARE); experiment: Test A pre-emergence, redroot pigweed
Method: as §1, with “IPOHE),” for “IPOHE)),”, “one day” for “8 d”
as §3

[10] = system: barnyardgrass (Echinochloa crus-galli, ECHCG); experiment: Test A post-emergence, barnyardgrass
Method: as §1, §2

[11] = system: barnyardgrass (Echinochloa crus-galli, ECHCG); experiment: Test A pre-emergence, barnyardgrass
Method: as §1, with “IPOHE),” for “IPOHE)),”, “one day” for “8 d”
as §3

[12] = system: ivy-leaved morning glory (Ipomoea hederacea, IPOHE); experiment: Test A post-emergence, ivy-leaved morning glory
Method: as §1, §2

Compound	damage to plant (100=total damage; 0=no damage) ABUTH ([1]; Post-Emergence at 15.625 g/ha)	damage to plant (100=total damage; 0=no damage) ABUTH ([1]; Post-Emergence at 62.5 g/ha)	damage to plant (100=total damage; 0=no damage) ABUTH ([1]; Post-Emergence at 250 g/ha)	damage to plant (100=total damage; 0=no damage) IPOHE ([2]; Pre-Emergence at 15.625 g/ha)	damage to plant (100=total damage; 0=no damage) IPOHE ([2]; Pre-Emergence at 62.5 g/ha)	damage to plant (100=total damage; 0=no damage) IPOHE ([2]; Pre-Emergence at 250 g/ha)	damage to plant (100=total damage; 0=no damage) ZEAMX (corn (Zea mays, ZEAMX) [3]; Post-Emergence at 15.625 g/ha)	damage to plant (100=total damage; 0=no damage) ZEAMX (corn (Zea mays, ZEAMX) [3]; Post-Emergence at 62.5 g/ha)	damage to plant (100=total damage; 0=no damage) ZEAMX (corn (Zea mays, ZEAMX) [3]; Post-Emergence at 250 g/ha)	damage to plant (100=total damage; 0=no damage) SETFA ([4]; Pre-Emergence at 15.625 g/ha)	damage to plant (100=total damage; 0=no damage) SETFA ([4]; Pre-Emergence at 62.5 g/ha)	damage to plant (100=total damage; 0=no damage) SETFA ([4]; Pre-Emergence at 250 g/ha)	damage to plant (100=total damage; 0=no damage) ABUTH ([5]; Pre-Emergence at 15.625 g/ha)	damage to plant (100=total damage; 0=no damage) ABUTH ([5]; Pre-Emergence at 62.5 g/ha)	damage to plant (100=total damage; 0=no damage) ABUTH ([5]; Pre-Emergence at 250 g/ha)	damage to plant (100=total damage; 0=no damage) SETFA ([6]; Post-Emergence at 15.625 g/ha)	damage to plant (100=total damage; 0=no damage) SETFA ([6]; Post-Emergence at 62.5 g/ha)	damage to plant (100=total damage; 0=no damage) SETFA ([6]; Post-Emergence at 250 g/ha)	damage to plant (100=total damage; 0=no damage) AMARE ([7]; Post-Emergence at 15.625 g/ha)	damage to plant (100=total damage; 0=no damage) AMARE ([7]; Post-Emergence at 62.5 g/ha)	further results
CCn1nc(C2CN(C)C(=O)C2C(=O)Nc2cccc(F)c2F)c2cccc(F)c21 (racemic) [Compound 10]	0	0	10	0	30	0	0	10	70	80	90	90	0	10	0	50	80	90	0	0	damage to plant (100=total damage; 0=no damage) AMARE ([7]; Post-Emergence at 250 g/ha): 0; damage to plant (100=total damage; 0=no damage) ZEAMX (corn (Zea mays, ZEAMX) [8]; Pre-Emergence at 15.625 g/ha): 0; damage to plant (100=total damage; 0=no damage) ZEAMX (corn (Zea mays, ZEAMX) [8]; Pre-Emergence at 62.5 g/ha): 70; damage to plant (100=total damage; 0=no damage) ZEAMX (corn (Zea mays, ZEAMX) [8]; Pre-Emergence at 250 g/ha): 70; damage to plant (100=total damage; 0=no damage) AMARE ([9]; Pre-Emergence at 15.625 g/ha): 0; damage to plant (100=total damage; 0=no damage) AMARE ([9]; Pre-Emergence at 62.5 g/ha): 0; damage to plant (100=total damage; 0=no damage) AMARE ([9]; Pre-Emergence at 250 g/ha): 10; damage to plant (100=total damage; 0=no damage) ECHCG ([10]; Post-Emergence at 15.625 g/ha): 60; damage to plant (100=total damage; 0=no damage) ECHCG ([10]; Post-Emergence at 62.5 g/ha): 90; damage to plant (100=total damage; 0=no damage) ECHCG ([10]; Post-Emergence at 250 g/ha): 90; damage to plant (100=total damage; 0=no damage) ECHCG ([11]; Pre-Emergence at 15.625 g/ha): 50; damage to plant (100=total damage; 0=no damage) ECHCG ([11]; Pre-Emergence at 62.5 g/ha): 90; damage to plant (100=total damage; 0=no damage) ECHCG ([11]; Pre-Emergence at 250 g/ha): 90; damage to plant (100=total damage; 0=no damage) IPOHE ([12]; Post-Emergence at 15.625 g/ha): 0; damage to plant (100=total damage; 0=no damage) IPOHE ([12]; Post-Emergence at 62.5 g/ha): 0; damage to plant (100=total damage; 0=no damage) IPOHE ([12]; Post-Emergence at 250 g/ha): 30
CN1CC(c2cc(C(F)(F)F)n(C)n2)C(C(=O)Nc2cccc(F)c2OC(F)(F)F)C1=O (racemic) [Compound 16]	0	0	0	0	0	50	0	0	0	0	80	90	0	0	0	0	60	70	0	0	damage to plant (100=total damage; 0=no damage) AMARE ([7]; Post-Emergence at 250 g/ha): 0; damage to plant (100=total damage; 0=no damage) ZEAMX (corn (Zea mays, ZEAMX) [8]; Pre-Emergence at 15.625 g/ha): 0; damage to plant (100=total damage; 0=no damage) ZEAMX (corn (Zea mays, ZEAMX) [8]; Pre-Emergence at 62.5 g/ha): 0; damage to plant (100=total damage; 0=no damage) ZEAMX (corn (Zea mays, ZEAMX) [8]; Pre-Emergence at 250 g/ha): 30; damage to plant (100=total damage; 0=no damage) AMARE ([9]; Pre-Emergence at 15.625 g/ha): 0; damage to plant (100=total damage; 0=no damage) AMARE ([9]; Pre-Emergence at 62.5 g/ha): 0; damage to plant (100=total damage; 0=no damage) AMARE ([9]; Pre-Emergence at 250 g/ha): 0; damage to plant (100=total damage; 0=no damage) ECHCG ([10]; Post-Emergence at 15.625 g/ha): 0; damage to plant (100=total damage; 0=no damage) ECHCG ([10]; Post-Emergence at 62.5 g/ha): 50; damage to plant (100=total damage; 0=no damage) ECHCG ([10]; Post-Emergence at 250 g/ha): 70; damage to plant (100=total damage; 0=no damage) ECHCG ([11]; Pre-Emergence at 15.625 g/ha): 0; damage to plant (100=total damage; 0=no damage) ECHCG ([11]; Pre-Emergence at 62.5 g/ha): 80; damage to plant (100=total damage; 0=no damage) ECHCG ([11]; Pre-Emergence at 250 g/ha): 90; damage to plant (100=total damage; 0=no damage) IPOHE ([12]; Post-Emergence at 15.625 g/ha): 0; damage to plant (100=total damage; 0=no damage) IPOHE ([12]; Post-Emergence at 62.5 g/ha): 0; damage to plant (100=total damage; 0=no damage) IPOHE ([12]; Post-Emergence at 250 g/ha): 0
CCc1ccccc1NC(=O)C1C(=O)N(C)CC1c1cc(C(F)(F)F)n(C)n1 (racemic) [Compound 20]	0	0	0	0	0	0	0	0	0	50	80	90	0	0	0	30	70	80	10	10	damage to plant (100=total damage; 0=no damage) AMARE ([7]; Post-Emergence at 250 g/ha): 20; damage to plant (100=total damage; 0=no damage) ZEAMX (corn (Zea mays, ZEAMX) [8]; Pre-Emergence at 15.625 g/ha): 0; damage to plant (100=total damage; 0=no damage) ZEAMX (corn (Zea mays, ZEAMX) [8]; Pre-Emergence at 62.5 g/ha): 0; damage to plant (100=total damage; 0=no damage) ZEAMX (corn (Zea mays, ZEAMX) [8]; Pre-Emergence at 250 g/ha): 20; damage to plant (100=total damage; 0=no damage) AMARE ([9]; Pre-Emergence at 15.625 g/ha): 50; damage to plant (100=total damage; 0=no damage) AMARE ([9]; Pre-Emergence at 62.5 g/ha): 60; damage to plant (100=total damage; 0=no damage) AMARE ([9]; Pre-Emergence at 250 g/ha): 70; damage to plant (100=total damage; 0=no damage) ECHCG ([10]; Post-Emergence at 15.625 g/ha): 20; damage to plant (100=total damage; 0=no damage) ECHCG ([10]; Post-Emergence at 62.5 g/ha): 60; damage to plant (100=total damage; 0=no damage) ECHCG ([10]; Post-Emergence at 250 g/ha): 80; damage to plant (100=total damage; 0=no damage) ECHCG ([11]; Pre-Emergence at 15.625 g/ha): 50; damage to plant (100=total damage; 0=no damage) ECHCG ([11]; Pre-Emergence at 62.5 g/ha): 80; damage to plant (100=total damage; 0=no damage) ECHCG ([11]; Pre-Emergence at 250 g/ha): 90; damage to plant (100=total damage; 0=no damage) IPOHE ([12]; Post-Emergence at 15.625 g/ha): 0; damage to plant (100=total damage; 0=no damage) IPOHE ([12]; Post-Emergence at 62.5 g/ha): 0; damage to plant (100=total damage; 0=no damage) IPOHE ([12]; Post-Emergence at 250 g/ha): 0
